Experimental data from US20240409886A1, “CULTURE MEDIUM COMPRISING DIPEPTIDES” (Evonik Operations GmbH, priority 2017, published 2024).
Residues, ends and D or L forms follow the SMILES beside them.

Tests used:
[1] = system: antibody-producing Chinese Hamster Ovary (CHO) cell (subclone DG44); assay: product titer (antibody concentration at the end of the cultivation); type: cell-based; details: for rel. product titer [-]: end of cultivation, t=18h, relative units
Experimental: The effect of the Gln-Asn dipeptide on an antibody-producing Chinese Hamster Ovary (CHO) cell (subclone DG44; Life Technologies Corporation, Carlsbad, USA) was investigated using one-factor-at-a-time (OFAT) analysis.
The analysis was based on a comparison of the viable cell density and cell viability in a series of cell cultures, which were conducted at substantially identical culturing conditions, however, with increasing amounts of the Gln-Asn dipeptide in the medium. In order to keep the total amounts of Asn and Gln units (molar basis) in the various culture media constant, the molar concentration of free glutamine and free asparagine was reduced in accordance with the molar amount of the dipeptide added. A series of culture media having increasing amounts of the Gln-Asn dipeptide was prepared by mixing varying amounts of a Base Medium (comprising free Asn and Gln) and a Test Medium (comprising Asn-Gln dipeptide). A commercially available defined cell culture medium (TC-42, TeutoCell AG, Bielefeld, Germany) served as the Base Medium. (Any other suitable cell culture medium could be used.) A Test Medium (TC-42-EVO) was prepared so as to have identical nutrient concentrations compared to the Base Medium, however, instead of free Asn the Test Medium contained an equimolar amount (5.4 mM) of Gin-Asn dipeptide. Furthermore, the free Gln concentration in the Test Medium was set to a value such that the total concentration of Gln units in the Test Medium (i.e., free Gln and dipeptide-Gln) matched the concentration of free Gln in the Base Medium. All other nutrient concentrations in the Test Medium were the same as in the Base Medium. The Base Medium contained 1461.5 mg/l free Gln and 612 mg/l free Asn.
Six cell cultivations were then conducted with media containing varying amounts of the Test Medium and the Base Medium in the following proportions:
All media were set to pH 8.3. Salinity of the culture media was set to 285 mOsmol/kg with NaCl. All cultivations were conducted in on a rotary shaker under identical culture conditions (temperature, humidity, rpm, CO2, etc.), using standard cell culture methods. Three passages of a cell culture are conducted and viable cell density (VCD; 10^6 viable cells/ml) and cell viability (%) was followed in duplicate determinations, using […] determination.
Generally, an increased product titer is observed in all cultures including the Asn-containing dipeptide. In cultivations #2 and #3 (80% and 25% of the Asn present in form of the dipeptide, respectively) the product titer is more than 1.4-fold increased.

[2] = system: antibody-producing Chinese Hamster Ovary (CHO) cell (subclone DG44)
Experimental: The analysis was based on a comparison of the viable cell density and cell viability in a series of cell cultures, which were conducted at substantially identical culturing conditions, however, with increasing amounts of the Gln-Asn dipeptide in the medium. In order to keep the total amounts of Asn and Gln units (molar basis) in the various culture media constant, the molar concentration of free glutamine and free asparagine was reduced in accordance with the molar amount of the dipeptide added. A series of culture media having increasing amounts of the Gln-Asn dipeptide was prepared by mixing varying amounts of a Base Medium (comprising free Asn and Gln) and a Test Medium (comprising Asn-Gln dipeptide). A commercially available defined cell culture medium (TC-42, TeutoCell AG, Bielefeld, Germany) served as the Base Medium. […] Furthermore, the free Gln concentration in the Test Medium was set to a value such that the total concentration of Gln units in the Test Medium (i.e., free Gln and dipeptide-Gln) matched the concentration of free Gln in the Base Medium. All other nutrient concentrations in the Test Medium were the same as in the Base Medium. […]

## NC(=O)CC[C@H](N)C(=O)N[C@@H](CC(N)=O)C(=O)O [Gln-Asn, L-glutaminyl-L-asparagine] (H-Gln-Asn-OH)
[1]; 0.3 mM dipeptide (#5)
  rel. product titer [-]: 1.01
[1]; 0.8 mM dipeptide (#4)
  rel. product titer [-]: 1.11
[1]; 1.4 mM dipeptide (#3)
  rel. product titer [-]: 1.42
[1]; 4.3 mM dipeptide (#2)
  rel. product titer [-]: 1.41
[1]; 5.4 mM dipeptide (#1)
  rel. product titer [-]: 1.19
[1]; cultivation #2, 80% of the Asn present in form of the dipeptide
  product titer increase: more than 1.4 fold
[1]; cultivation #3, 25% of the Asn present in form of the dipeptide
  product titer increase: more than 1.4 fold
[1]; cultivations #1-#4, dipeptide 0.8 mM to 5.4 mM
  product titer: Significantly improved
[2]; high concentrations of the dipeptide (cultivations #1, #2, #3)
  cell viability at day 18: relatively high viability
[2]; lower concentration of the dipeptide (cultivations #4, #5)
  cell viability at the end of experiment: significantly reduced cell viability
